The text below walks through data of US8097646B2, “Ophthalmic preparation containing menthyl ester of indomethacin” (AlphaRx, Inc., priority 2005, dated 2012).

For data set [1] the following is noted: cited from earlier work.
For the next data set, the system named is eye. The data set can be described thus: Comparison of ocular irritation levels, one drop onto the eye of volunteers (Example 10). The following applies: ophthalmic formulation comprising MEI, volunteers n=3. The data set is classed as in vivo, healthy volunteers. The protocol:
The ocular irritation of MEI in an ophthalmic formulation as compared with an indomethacin-containing ophthalmic preparation has been tested in 3 healthy volunteers. One drop (40-50 mcl) of the tested formulations (0.25% of MEI (as per Example 5-9), 0.1% Indocollyre®, and sterile saline as the control) was placed onto the eye of each volunteer using an appropriate dropper. The interval between sample applications was at least 24 hours The comparative irritation for MEI, indomethacin and other NSAIDs (Indocollyre®) in ophthalmic formulations is set out in Table 4 (volunteers data, n=3): The irritation scale in the above table ranges from 0-10, with 0 corresponding to no burning or itching, and 10 corresponding to extremely severe burning or itching.

A short description of data set [2]: Pharmacokinetics of MEI in rats after intraperitoneal administration (Example 11, FIG. 2). The conditions noted are these: 20 mg/kg intraperitoneally, submicron emulsion (Example 6), Wistar rats. The data set is classed as in vivo. How it is done:
FIG. 2 is a graph illustrating the pharmacokinetics of MEI in Wistar rats after intraperitoneal IP) administration (20 mg/kg, Example 6) as described in Example 11.

Data set [3] is described as follows: Solubility of the substance in water and solvents. The data set is classed as physicochemical. The protocol:
MEI is a slightly yellow crystalline substance with a melting point of 86-90° C. […] The NMR, mass-spectrometry and FT-IR-spectrum results were: […]

Another data set relates to carrageenan paw edema. The data set can be described thus: Carrageenan paw edema model (Example 12, FIG. 3). The conditions noted are these: intraperitoneally administrated, rats n=4, 1% carrageenan into hind paw. The data set is classed as in vivo. How it is done:
FIG. 3 is a graph illustrating the comparative anti-inflammatory activity of indomethacin and MEI in a carrageenan paw edema model (rats, n=4) as described in Example 12.
FIG. 3 represents the anti-inflammatory activity of MEI in a carrageenan model. Inflammation in rats (n=4) was caused by injection of 100 microliters of sterile 1% carrageenan solution into a hind paw, originating local edema development with maximum development at 3-4 hours after administration. The contaralateral paw was injected with 100 microliters of saline and used as control. Paw volumes were measured by plethysmometry, (Ugo Basil Plethysmometer, Italy) and the calculated difference in paw volumes indicated the severity of inflammation.

For the compound `COc1ccc2c(c1)c(CC(=O)O)c(C)n2C(=O)c1ccc(Cl)cc1` [Indomethacin, 1-(4-Chlorobenzoyl)-5-Methoxy-2-methyl-1H-indole-3-acetic acid], in data set [1], the “pH above which the substance is unstable” value is given as “greater than 6.0”.

As to `COc1ccc2c(c1)c(CC(=O)OC1CC(C)CCC1C(C)C)c(C)n2C(=O)c1ccc(Cl)cc1` (centres unmarked) [MEI, Menthyl ester of indomethacin], the “Irritation compared with indomethacin in solution” value in the data set with eye is “significantly lower irritation than indomethacin in solution”. In data set [2], the “Level of the parent substance (MEI itself)” value is listed as “decreases rapidly”; the “Metabolism of MEI and release of indomethacin” value is “rapidly metabolizes and releases indomethacin for a prolonged period”. Also, the “Solubility in alcohol, methylene chloride and chlorophorm, ethyl acetate, glycerides and other organic solvents” value in data set [3] (organic solvents) was “freely soluble”. In data set [3] (propylene glycol, PEG-400), the “Solubility in propylene glycol and polyethylene glycol (PEG)-400” value is on record as “poorly soluble”. For the same compound, in data set [3] (water), the Solubility in water entry was “insoluble”. For the same compound, the “Anti-inflammatory activity (difference in paw volumes)” value with carrageenan paw edema was “high level of anti-inflammatory activity”.
